We go through 17 compounds from PubChem BioAssay (NCI).

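Each compound was tested at five concentrations against cells in 96-well plates for 48 hours. TGI is the concentration that stops growth completely.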

Test systems include HT29 colon; UACC-62 melanoma; NCI-H226 lung; TK-10 renal; 786-0 renal; MALME-3M melanoma; EKVX NSCLC; UACC-257 melanoma; NCI/ADR-RES ovarian.
What all share (experiment): growth of human tumour cells (NCI), 48 h

With `O=C1C2Nc3ccccc3SC2C(=O)N1c1ccc(Br)cc1` (stereo not given), the TGI with HT29 colon is above 100 µM; in the test on UACC-62 melanoma, above 100 µM; with NCI-H226 lung it was 92.4 µM; in the test on TK-10 renal, above 100 µM; in the test with 786-0 renal, 46.6 µM; with MALME-3M melanoma it was above 100 µM. In addition, the TGI in the test on EKVX NSCLC and in the test with UACC-257 melanoma was above 100 µM each time.
For the compound `COc1ccc(C/C(=N/O)C(=O)NCCc2cc(Br)c(OCCCN(C)C)c(Br)c2)cc1Br`, the TGI in the test on HT29 colon was found to be 19.1 µM; with TK-10 renal it was 59.8 µM; with 786-0 renal it was 48.1 µM; with MALME-3M melanoma, 44.6 µM; with EKVX NSCLC, 43 µM; with UACC-257 melanoma, 30.6 µM.
Consider `CCC(C)CCOC(=O)c1ccc(N=Cc2ccc(C=Nc3ccc(C(=O)OCCC(C)CC)cc3)cc2)cc1` (stereo not given), for which the TGI in the test on HT29 colon, in the test on UACC-62 melanoma, in the test on NCI-H226 lung, in the test on 786-0 renal, in the test with MALME-3M melanoma and in the test with EKVX NSCLC was above 100 µM in each case. In the test with UACC-257 melanoma, this compound displayed a TGI above 100 µM.
For `COC(=O)C1CCc2c1c(=O)n1c([nH]c3ccccc31)c2C#N` (stereo not given), the TGI in the test on HT29 colon, in the test on UACC-62 melanoma, with NCI-H226 lung, in the test on TK-10 renal, with 786-0 renal and in the test on MALME-3M melanoma was above 100 µM in each case. The TGI in the test on EKVX NSCLC and in the test on UACC-257 melanoma was above 100 µM throughout.
With `O=C(NCCCCCCCCCCCCNC(=O)c1cccc2ccccc12)c1cccc2ccccc12`, the TGI in the test on HT29 colon was above 100 µM; with UACC-62 melanoma it was above 100 µM; in the test on NCI-H226 lung it was above 82.2 µM; in the test with TK-10 renal, above 87.1 µM; with 786-0 renal it was above 71.7 µM; in the test on MALME-3M melanoma it was above 100 µM. The TGI in the test with EKVX NSCLC and with UACC-257 melanoma was above 100 µM in each case.
With `Nc1ncnc2c1ncn2[C@]1(CO)C=C(CO)C(O)C1O` (stereo not given in full), the TGI with HT29 colon, with NCI-H226 lung, in the test with TK-10 renal, in the test on 786-0 renal, with MALME-3M melanoma and in the test on UACC-257 melanoma was above 100 µM each time.
Take `Cc1ccc(S(=O)(=O)OCCn2cnc3nc(NC(=O)c4ccccc4)[nH]c(=O)c32)cc1`: the TGI in the test with HT29 colon, with UACC-62 melanoma, in the test on NCI-H226 lung, with TK-10 renal, in the test on 786-0 renal and in the test on MALME-3M melanoma was above 100 µM each time. The TGI in the test with EKVX NSCLC and with UACC-257 melanoma was above 100 µM in each case.
Turning to `CC1=Nc2ccccc2S/C1=C(/C)NNS(=O)(=O)c1ccc(C)cc1`, the TGI with HT29 colon, in the test with UACC-62 melanoma, in the test on NCI-H226 lung, with TK-10 renal, in the test on 786-0 renal and with MALME-3M melanoma was above 100 µM in each case. The TGI in the test with EKVX NSCLC and in the test on UACC-257 melanoma was above 100 µM each time.
Regarding `O=C1CSCc2sccc21`, the TGI in the test on HT29 colon, in the test with UACC-62 melanoma, in the test on NCI-H226 lung, in the test on TK-10 renal, in the test with 786-0 renal and with EKVX NSCLC was above 100 µM each time. Moreover, the TGI in the test with NCI/ADR-RES ovarian and with UACC-257 melanoma was above 100 µM each time.
In the case of `O=C(/C=C/c1cc(Cl)cc(Cl)c1O)c1cccc(O)c1`, the TGI with HT29 colon is above 100 µM; in the test with UACC-62 melanoma, above 100 µM; in the test with NCI-H226 lung, 30.6 µM; in the test with TK-10 renal, above 100 µM; in the test with 786-0 renal, above 100 µM; in the test on MALME-3M melanoma it was 87.3 µM. The TGI in the test on EKVX NSCLC and in the test with UACC-257 melanoma was above 100 µM each time.
As for `Cc1cn(C2CC(O)C(COC(=O)c3ccccc3)O2)c(=O)[nH]c1=O` (stereo not given), the TGI in the test on HT29 colon, in the test on UACC-62 melanoma, in the test on TK-10 renal, with 786-0 renal, with MALME-3M melanoma and in the test on UACC-257 melanoma was above 100 µM throughout.
Take `COC(=O)C(Cc1cc(OC)c(OC)c(OC)c1)C(=O)OC`: the TGI with HT29 colon, in the test on UACC-62 melanoma, in the test with TK-10 renal, in the test with 786-0 renal, in the test with MALME-3M melanoma and with EKVX NSCLC was above 320 µM each time. Further, in the test with UACC-257 melanoma, the TGI is above 320 µM.
Take `N#Cc1c(-c2ccc(Cl)c(Cl)c2)c(-c2ccc(Cl)c(Cl)c2)nn(CC(=O)O)c1=O`: the TGI in the test with HT29 colon, with UACC-62 melanoma, in the test on NCI-H226 lung, with TK-10 renal, in the test on 786-0 renal and in the test on MALME-3M melanoma was above 100 µM each time. For the same compound, the TGI in the test on EKVX NSCLC and with UACC-257 melanoma was above 100 µM throughout.
Regarding `COC(=O)CC(NC(=O)OCc1ccccc1)C(C(C)=O)C(=O)OCc1ccccc1` (stereo not given), the TGI with UACC-62 melanoma, with TK-10 renal, in the test on 786-0 renal, in the test with EKVX NSCLC and in the test on UACC-257 melanoma was above 31.6 µM throughout.
For the compound `COc1ccc(NC(=O)C(=O)c2c(O)c3ccc(O)cc3oc2=O)c([N+](=O)[O-])c1`, the TGI in the test on HT29 colon, in the test on UACC-62 melanoma, with NCI-H226 lung, in the test on TK-10 renal, in the test on 786-0 renal and with MALME-3M melanoma was above 100 µM throughout. For the same compound, the TGI in the test on EKVX NSCLC and in the test on UACC-257 melanoma was above 100 µM throughout.
Take `C[C@@H](NC1CCCC[C@H]1O)c1ccccc1` (stereo not given in full): the TGI with HT29 colon, in the test with UACC-62 melanoma, in the test with NCI-H226 lung, in the test with TK-10 renal, with 786-0 renal and in the test with MALME-3M melanoma was above 100 µM throughout. In addition, the TGI in the test with EKVX NSCLC and in the test on UACC-257 melanoma was above 100 µM each time.
Regarding `CN1c2ccccc2N(C(=O)c2ccc([N+](=O)[O-])cc2)C(CC(=O)O)c2cccn21` (stereo not given), the TGI in the test with HT29 colon, in the test on UACC-62 melanoma, in the test on NCI-H226 lung, with TK-10 renal, in the test with 786-0 renal and with MALME-3M melanoma was above 100 µM in each case. The TGI in the test with EKVX NSCLC and in the test on UACC-257 melanoma was above 100 µM throughout.
